From PubChem BioAssay AID2060491 (Molecular Pharmacology Branch, DTP, NCI, 2025)
One block for each compound: values may come before it.

System: 857933-349-R-J2-PDC complex spheroids, viability
Experiment: Anticancer human tumor 857933-349-R-J2-PDC patient-derived colon adenocarcinoma cell line growth inhibition [GQUAD]
Conditions: for IC50: curve of first compound; for viability, T/C: stronger effect = lower value
In short: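 Tumor cells were grown as complex spheroids with HUVEC endothelial cells and mesenchymal stem cells as stroma. G-quadruplex stabilizers were combined with targeted agents over half-log dilutions from near the clinical Cmax, or from 10 microM.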

[1] = second compound 0.0316 µM, first compound 0.0316 µM
[2] = second compound 0.0316 µM, first compound 0.1 µM
[3] = second compound 0.0316 µM, first compound 0.316 µM
[4] = second compound 0.0316 µM, first compound 1 µM
[5] = second compound 0.0316 µM, first compound 3.16 µM
[6] = second compound 0.0316 µM, first compound 10 µM
[7] = second compound 0.1 µM, first compound 0.0316 µM
[8] = second compound 0.1 µM, first compound 0.1 µM
[9] = second compound 0.1 µM, first compound 0.316 µM
[10] = second compound 0.1 µM, first compound 1 µM
[11] = second compound 0.1 µM, first compound 3.16 µM
[12] = second compound 0.1 µM, first compound 10 µM
[13] = second compound 0.316 µM, first compound 0.0316 µM
[14] = second compound 0.316 µM, first compound 0.1 µM
[15] = second compound 0.316 µM, first compound 0.316 µM
[16] = second compound 0.316 µM, first compound 1 µM
[17] = second compound 0.316 µM, first compound 3.16 µM
[18] = second compound 0.316 µM, first compound 10 µM
[19] = second compound 1 µM, first compound 0.0316 µM
[20] = second compound 1 µM, first compound 0.1 µM
[21] = second compound 1 µM, first compound 0.316 µM
[22] = second compound 1 µM, first compound 1 µM
[23] = second compound 1 µM, first compound 3.16 µM
[24] = second compound 1 µM, first compound 10 µM
[25] = second compound 3.16 µM, first compound 0.0316 µM
[26] = second compound 3.16 µM, first compound 0.1 µM
[27] = second compound 3.16 µM, first compound 0.316 µM
[28] = second compound 3.16 µM, first compound 1 µM
[29] = second compound 3.16 µM, first compound 3.16 µM
[30] = second compound 3.16 µM, first compound 10 µM
[31] = second compound 10 µM, first compound 0.0316 µM
[32] = second compound 10 µM, first compound 0.1 µM
[33] = second compound 10 µM, first compound 0.316 µM
[34] = second compound 10 µM, first compound 1 µM
[35] = second compound 10 µM, first compound 3.16 µM
[36] = second compound 10 µM, first compound 10 µM
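Further: spheroids exposed to compounds for one week before readout.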
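Wherever viability, T/C is given: percent viability relative to vehicle DMSO wells taken as 100%.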

Structure (SMILES): CC1COCCN1c1cc(-c2ccnn2C)c2ccnc(-c3ccn[nH]3)c2n1 (stereo unspecified) + CN(C)c1ccc(Nc2c3ccc(NC(=O)CCN4CCCC4)cc3nc3cc(NC(=O)CCN4CCCC4)ccc23)cc1
- IC50 (second compound 0.0316 µM): > 10000 nM
- IC50 (second compound 0.1 µM): > 10000 nM
- IC50 (second compound 0.316 µM): > 10000 nM
- IC50 (second compound 1 µM): > 10000 nM
- IC50 (second compound 3.16 µM): > 10000 nM
- IC50 (second compound 10 µM): 2950 nM
- viability, T/C [1]: 98.3%
- viability, T/C [2]: 80.7%
- viability, T/C [3]: 78%
- viability, T/C [4]: 60.8%
- viability, T/C [5]: 56.2%
- viability, T/C [6]: 62.5%
- viability, T/C [7]: 96.1%
- viability, T/C [8]: 82.5%
- viability, T/C [9]: 73.5%
- viability, T/C [10]: 58.3%
- viability, T/C [11]: 54.3%
- viability, T/C [12]: 69.7%
- viability, T/C [13]: 90.8%
- viability, T/C [14]: 80.8%
- viability, T/C [15]: 74.7%
- viability, T/C [16]: 59.4%
- viability, T/C [17]: 58.6%
- viability, T/C [18]: 63.1%
- viability, T/C [19]: 93.5%
- viability, T/C [20]: 73.4%
- viability, T/C [21]: 73.8%
- viability, T/C [22]: 55.9%
- viability, T/C [23]: 58.4%
- viability, T/C [24]: 54.3%
- viability, T/C [25]: 85.9%
- viability, T/C [26]: 71.8%
- viability, T/C [27]: 66.1%
- viability, T/C [28]: 53.1%
- viability, T/C [29]: 58.9%
- viability, T/C [30]: 52.4%
- viability, T/C [31]: 75.8%
- viability, T/C [32]: 70.8%
- viability, T/C [33]: 61.9%
- viability, T/C [34]: 55.2%
- viability, T/C [35]: 49.6%
- viability, T/C [36]: 44.6%

- IC50 (second compound 0.0316 µM): < 31.6 nM
- IC50 (second compound 0.1 µM): < 31.6 nM
- IC50 (second compound 0.316 µM): < 31.6 nM
- IC50 (second compound 1 µM): < 31.6 nM
- IC50 (second compound 3.16 µM): < 31.6 nM
- IC50 (second compound 10 µM): < 31.6 nM
Structure (SMILES): CC(=O)O[C@H]1C(=O)[C@@]2(C)[C@H]([C@H](OC(=O)c3ccccc3)[C@]3(O)C[C@H](OC(=O)[C@H](O)[C@@H](NC(=O)c4ccccc4)c4ccccc4)C(C)=C1C3(C)C)[C@]1(OC(C)=O)CO[C@@H]1C[C@@H]2O + Cc1cnc(CNC(=O)c2c(=O)c3ccc(N4CCCN(C)CC4)nc3n3c2sc2ccccc23)cn1
- viability, T/C [1]: 40.6%
- viability, T/C [2]: 13.7%
- viability, T/C [3]: 8.87%
- viability, T/C [4]: 6.32%
- viability, T/C [5]: 6.9%
- viability, T/C [6]: 11.3%
- viability, T/C [7]: 31.5%
- viability, T/C [8]: 14%
- viability, T/C [9]: 6.78%
- viability, T/C [10]: 6.48%
- viability, T/C [11]: 6.61%
- viability, T/C [12]: 7.71%
- viability, T/C [13]: 14.6%
- viability, T/C [14]: 9.67%
- viability, T/C [15]: 5.73%
- viability, T/C [16]: 5.21%
- viability, T/C [17]: 4.57%
- viability, T/C [18]: 6.73%
- viability, T/C [19]: 3.73%
- viability, T/C [20]: 3.78%
- viability, T/C [21]: 3.68%
- viability, T/C [22]: 2.27%
- viability, T/C [23]: 2.21%
- viability, T/C [24]: 3.57%
- viability, T/C [25]: 2.95%
- viability, T/C [26]: 2.49%
- viability, T/C [27]: 1.98%
- viability, T/C [28]: 1.77%
- viability, T/C [29]: 1.78%
- viability, T/C [30]: 2.45%
- viability, T/C [31]: 0.16%
- viability, T/C [32]: 0.18%
- viability, T/C [33]: 0.19%
- viability, T/C [34]: 0.14%
- viability, T/C [35]: 0.17%
- viability, T/C [36]: 0.19%

Structure (SMILES): CC(C)(O)C1CCC(Nc2ccc3ncc(-c4cccc(C(F)(F)F)c4)n3n2)CC1 (stereo unspecified) + CN(C)c1ccc(Nc2c3ccc(NC(=O)CCN4CCCC4)cc3nc3cc(NC(=O)CCN4CCCC4)ccc23)cc1
- IC50 (second compound 0.0316 µM): 801 nM
- IC50 (second compound 0.1 µM): 732 nM
- IC50 (second compound 0.316 µM): 691 nM
- IC50 (second compound 1 µM): 684 nM
- IC50 (second compound 3.16 µM): 596 nM
- IC50 (second compound 10 µM): 456 nM
- viability, T/C [1]: 117%
- viability, T/C [2]: 98.4%
- viability, T/C [3]: 97.5%
- viability, T/C [4]: 39.1%
- viability, T/C [5]: 2.79%
- viability, T/C [6]: 2.75%
- viability, T/C [7]: 102%
- viability, T/C [8]: 94%
- viability, T/C [9]: 89.3%
- viability, T/C [10]: 35.6%
- viability, T/C [11]: 2.84%
- viability, T/C [12]: 2.87%
- viability, T/C [13]: 99%
- viability, T/C [14]: 94.3%
- viability, T/C [15]: 87.2%
- viability, T/C [16]: 32.6%
- viability, T/C [17]: 3.05%
- viability, T/C [18]: 3.1%
- viability, T/C [19]: 94%
- viability, T/C [20]: 83.2%
- viability, T/C [21]: 83.3%
- viability, T/C [22]: 33.8%
- viability, T/C [23]: 3.77%
- viability, T/C [24]: 3.15%
- viability, T/C [25]: 78.9%
- viability, T/C [26]: 75.5%
- viability, T/C [27]: 74.2%
- viability, T/C [28]: 30.4%
- viability, T/C [29]: 7.32%
- viability, T/C [30]: 5.21%
- viability, T/C [31]: 62.9%
- viability, T/C [32]: 66.4%
- viability, T/C [33]: 59.4%
- viability, T/C [34]: 30.1%
- viability, T/C [35]: 15.3%
- viability, T/C [36]: 9.67%
